From publication PMC7503831 (Molecules, 2020)
Entries after “also recorded” stand apart in the source; their conditions may differ. Where two headings read alike, the source gives them in different places. Marks after values point to notes of the source that are not given here.

Key:
human MOR = target: T1, human MOR (Homo sapiens, UniProt P35372); experiment: Competitive binding assay, [3H]DAMGO displacement, MOR
T1 construct: expressed in transfected cells; host or cells: CHO cells (membrane preparation)
Protocol: (§1) The human MOR, DOR, or KOR recombinant CHO cell pellets were resuspended in 50 mM Tris–HCl buffer containing 5 mM MgCl2, 1 mM ethylene glycol bis(2-aminoethyl ether)-N,N,N,N-tetraacetic acid (EGTA), pH 7.4. The cell suspensions were disrupted by use of a glassteflon homogeniser and centrifuged at 48,000× g for 15 min. The supernatant was discarded and the pellets were resuspended in buffer at a concentration of 5 mg protein/mL and stored at −80 °C until further use.
(§2) Human MOR, DOR, or KOR recombinant CHO cell membranes were incubated for 2 h at 25 °C in 0.25 mL of the buffer containing with various concentrations of the tested compound, 2 nM [^3H] DAMGO, [^3H] […] U69,593 (PerkinElmer, Inc., MA, USA), respectively. The incubation was terminated by collecting membranes on Filtermat B filter (PerkinElmer, Inc.) using a FilterMate™ harvester (PerkinElmer, Inc.). The filters were then washed three times with 50 mM Tris–HCl buffer, pH 7.4. Then, MeltiLex scintillant (PerkinElmer, Inc.) was melted onto the dried filters. Radioactivity was determined by a MicroBeta scintillation counter (PerkinElmer, Inc.). […] Ki and 95% CI values were calculated by Prism software (version 5.0).

human DOR [1] = target: T2, human DOR (Homo sapiens, UniProt P41143); experiment: [35S]GTPγS binding assay, functional activity for the DOR; assay type: biochemical; conditions: for Emax: read-out: Functional Activity for DOR, Emax (95% CI)
T2 construct: expressed in transfected cells; host or cells: CHO cells (membrane preparation)
Protocol: as §1
Human MOR, DOR, or KOR recombinant CHO cell membranes were incubated for 2 h at 25 °C in 0.25 mL of 50 mM Tris–HCl buffer containing 5 mM MgCl2, 1 mM EGTA, 100 mM NaCl, pH 7.4 with various concentrations of the tested compound, 30 μM guanosine 5-diphosphate (GDP) and 0.1 nM [^35S]GTPγS (PerkinElmer, Inc.). The incubation was terminated by collecting membranes on Filtermat B filter (PerkinElmer, Inc.) using a FilterMate™ harvester (Perkin Elmer, Inc.). The filters were then washed three times with 50 mM Tris–HCl buffer, pH 7.4. Then, MeltiLex scintillant (PerkinElmer, Inc.) was melted onto the dried filters. Radioactivity was determined by a MicroBeta scintillation counter (PerkinElmer, Inc.). EC50, Emax, and 95% CI values were calculated by Prism software (version 5.0). Nonspecific binding was measured in the presence of 10 μM unlabeled GTPγS (PerkinElmer, Inc.).

human DOR [2] = target: T2, human DOR; experiment: Competitive binding assay, [3H]DPDPE displacement, DOR
Protocol: as §1, §2

human KOR = target: T3, human KOR (Homo sapiens, UniProt P41145); experiment: Competitive binding assay, [3H]U69,593 displacement, KOR
T3 construct: expressed in transfected cells; host or cells: CHO cells (membrane preparation)
Protocol: as §1, §2

human DOR [3] = target: T2, human DOR; conditions: cited from earlier work; for Emax: Percent stimulation at 10 μM of the tested compound / Emax for the DOR (95% CI) / Functional Activity for DOR, Emax (95% CI) / EC50: [35S]GTPγS
human DOR [4] = target: T2, human DOR; conditions: cited from earlier work
[5] = read-out: Binding Affinity, Ki (DOR) (95% CI), [3H]DPDPE, CHO cells expressing human DOR
[6] = read-out: Functional Activity for DOR, EC50 (95% CI), human DOR recombinant CHO cell membrane
[7] = read-out: Ki for the DOR (95% CI)
[8] = read-out: EC50 for the DOR (95% CI)

Row | SMILES | Ki (human MOR) | Functional activity for the DOR, in words (human DOR [1]; [35S]GTPγS) | Emax (human DOR [1]) | Ki (human DOR [2]) | Ki (human KOR) | Emax for the DOR (95% CI) (human DOR [3]) | Ki (human DOR [4]; [7]) | also measured
1 | CS(=O)(=O)N1CCC23c4c5ccc(O)c4OC2c2[nH]c4ccccc4c2CC3(O)C1C5 (stereo not drawn) [9a, 6,7-Didehydro-4,5α-epoxy-17-(methylsulfonyl)indolo[2′,3′:6,7]morphinan-3,14β-diol] | 10.1 µM | inverse agonist activities | -48.8% | 0.284 µM |  |  |  | EC50 (human DOR [1]): 0.000468 µM
2 | O=S(=O)(N1CCC23c4c5ccc(O)c4OC2c2[nH]c4ccccc4c2CC3(O)C1C5)C(F)(F)F (stereo not drawn) [9b, 6,7-Didehydro-4,5α-epoxy-17-(1,1,1-trifluoromethylsulfonyl)indolo[2′,3′:6,7]morphinan-3,14β-diol] | 11.8 µM | inverse agonist activities |  | 0.365 µM | 0.675 µM |  |  | Emax at 10 µM (human DOR [1]; read-out: Emax: Percent stimulation at 10 μM of the tested compound, [35S]GTPγS, 10 μM): -36.1%
3 | O=S(=O)(c1ccccc1)N1CCC23c4c5ccc(O)c4OC2c2[nH]c4ccccc4c2CC3(O)C1C5 (stereo not drawn) [9c, 6,7-Didehydro-4,5α-epoxy-17-(phenylsulfonyl)indolo[2′,3′:6,7]morphinan-3,14β-diol] | 20.5 µM | neutral DOR antagonist |  | 0.0496 µM | 0.0956 µM |  |  | 
4 | O=S(=O)(Cc1ccccc1)N1CCC23c4c5ccc(O)c4OC2c2[nH]c4ccccc4c2CC3(O)C1C5 (stereo not drawn) [9d, 17-(Benzylsulfonyl)-6,7-didehydro-4,5α-epoxyindolo[2′,3′:6,7]morphinan-3,14β-diol] | 5.18 µM | DOR agonists | 47.1% | 0.734 µM | 18.8 µM |  |  | Binding affinity for the DOR, in words (human DOR [2]): low
5 | O=S(=O)(CCc1ccccc1)N1CCC23c4c5ccc(O)c4OC2c2[nH]c4ccccc4c2CC3(O)C1C5 (stereo not drawn) [9e, 6,7-Didehydro-4,5α-epoxy-17-((2-phenylethyl)sulfonyl)indolo[2′,3′:6,7]morphinan-3,14β-diol] | 1.4 µM | DOR agonists; also recorded: full DOR agonist activity with moderate potency | 88.1% | 0.132 µM | 17.8 µM |  |  | EC50 (human DOR [1]): 0.0758 µM; Functional activity category for the DOR (by Emax) (human DOR [1]; [35S]GTPγS): full agonist
6 | O=S(=O)(C1CC1)N1CCC23c4c5ccc(O)c4OC2c2[nH]c4ccccc4c2CC3(O)C1C5 (stereo not drawn) [9f, 17-(Cyclopropylsulfonyl)-6,7-didehydro-4,5α-epoxyindolo[2′,3′:6,7]morphinan-3,14β-diol] | 3.9 µM | inverse agonist activities; also recorded: almost full inverse agonists | -80.5% | 0.00744 µM | 0.0136 µM |  |  | EC50 (human DOR [1]): 0.00159 µM; Functional activity category for the DOR (by Emax) (human DOR [1]; [35S]GTPγS): full inverse agonist (full inverse agonist (−80% ≥ Emax)); Affinity for the DOR, fold lower than that of the mother compound NTI (human DOR [2]; Ki compared with NTI): over 10 fold
7 | C=CS(=O)(=O)N1CCC23c4c5ccc(O)c4OC2c2[nH]c4ccccc4c2CC3(O)C1C5 (stereo not drawn) [9g, 6,7-Didehydro-4,5α-epoxy-17-(ethenylsulfonyl)indolo[2′,3′:6,7]morphinan-3,14β-diol] | 3.57 µM | inverse agonist activities; also recorded: almost full inverse agonists | -80.2% | 0.196 µM | 59.1 µM |  |  | EC50 (human DOR [1]): 0.0078 µM
8 | Oc1ccc2c3c1O[C@H]1c4[nH]c5ccccc5c4C[C@@]4(O)[C@@H](C2)N(CC2CC2)CC[C@]314 [NTI, naltrindole] |  |  |  |  |  |  |  | Emax: Percent stimulation at 10 μM of the tested compound (human DOR [3]): 7.50 ^h %; Functional activity for the DOR, in words (human DOR [3]): neutral antagonist
9 | Oc1ccc2c3c1O[C@H]1c4[nH]c5ccccc5c4C[C@@]4(O)[C@@H](C2)N(CC(F)(F)F)CC[C@]314 [SYK-165] |  |  |  |  |  | −44.8% |  | 
10 | Oc1ccc2c3c1O[C@H]1c4[nH]c5ccccc5c4C[C@@]4(O)[C@@H](C2)N(Cc2ccccc2)CC[C@]314 [SYK-619] |  |  |  |  |  |  |  | Ki (human DOR [4]; [5]): 0.0158 µM; Functional Activity for DOR, Emax (95% CI) (human DOR [3]): −56.5%; EC50 (human DOR [3]; [6]): 0.0161 µM
11 | O=C(C1CC1)N1CC[C@]23c4c5ccc(O)c4O[C@H]2c2[nH]c4ccccc4c2C[C@@]3(O)[C@H]1C5 [SYK-623] |  |  |  |  |  | −91.2% | 0.0173 µM | Functional activity for the DOR, in words (human DOR [3]): full inverse agonist; Functional activity for the DOR, in words (human DOR [3]; listed as SKY-623): DOR full inverse agonist with high potency; EC50 (human DOR [3]; [8]): 0.000969 µM
12 | C=CCN1CC[C@]23c4c5ccc(O)c4O[C@H]2c2[nH]c4ccccc4c2C[C@@]3(O)[C@H]1C5 [SYK-706] |  |  |  |  |  |  |  | Ki (human DOR [4]; [5]): 0.000609 µM; Functional Activity for DOR, Emax (95% CI) (human DOR [3]): 16.2%; EC50 (human DOR [3]; [6]): 0.101 µM
13 | Oc1ccc2c3c1O[C@H]1c4[nH]c5ccccc5c4C[C@@]4(O)[C@@H](C2)N(CCc2ccccc2)CC[C@]314 [SYK-707] |  |  |  |  |  |  |  | Ki (human DOR [4]; [5]): 0.00194 µM; Functional Activity for DOR, Emax (95% CI) (human DOR [3]): 40.3%; EC50 (human DOR [3]; [6]): 0.0151 µM
14 | O=C(c1ccccc1)N1CC[C@]23c4c5ccc(O)c4O[C@H]2c2[nH]c4ccccc4c2C[C@@]3(O)[C@H]1C5 [SYK-736] |  |  |  |  |  | −92.7% | 0.29 µM | EC50 (human DOR [3]; [8]): 0.322 µM
15 | CC(=O)N1CC[C@]23c4c5ccc(O)c4O[C@H]2c2[nH]c4ccccc4c2C[C@@]3(O)[C@H]1C5 [SYK-747] |  |  |  |  |  |  | 0.977 µM | Emax: Percent stimulation at 10 μM of the tested compound (human DOR [3]): −4.86%
16 | O=C(N1CC[C@]23c4c5ccc(O)c4O[C@H]2c2[nH]c4ccccc4c2C[C@@]3(O)[C@H]1C5)C(F)(F)F [SYK-752] |  |  |  |  |  |  | 0.00784 µM | Emax: Percent stimulation at 10 μM of the tested compound (human DOR [3]): −1.10%
17 | O=C(CCc1ccccc1)N1CC[C@]23c4c5ccc(O)c4O[C@H]2c2[nH]c4ccccc4c2C[C@@]3(O)[C@H]1C5 [SYK-753] |  |  |  |  |  | 97.5% | 0.0415 µM | EC50 (human DOR [3]; [8]): 0.132 µM
18 | O=C(Cc1ccccc1)N1CC[C@]23c4c5ccc(O)c4O[C@H]2c2[nH]c4ccccc4c2C[C@@]3(O)[C@H]1C5 [SYK-754] |  |  |  |  |  | 88.5% | 0.089 µM | Functional activity for the DOR, in words (human DOR [3]): DOR full agonist with moderate potency; EC50 (human DOR [3]; [8]): 0.127 µM
19 | C=CC(=O)N1CC[C@]23c4c5ccc(O)c4O[C@H]2c2[nH]c4ccccc4c2C[C@@]3(O)[C@H]1C5 [SYK-836] |  |  |  |  |  | −86.2% | 0.00116 µM | EC50 (human DOR [3]; [8]): 0.00143 µM
20 | Oc1ccc2c3c1O[C@H]1c4[nH]c5ccccc5c4C[C@@]4(O)[C@@H](C2)N(CCCc2ccccc2)CC[C@]314 [SYK-903] |  |  | 105% | 0.166 µM |  |  |  | EC50 (human DOR [1]): 0.00737 µM
